# From patent US20210017607A1, “Methods of Predicting Responsiveness to Cancer Therapies” (The University of Chicago, priority 2019, published 2021)
# Square brackets hold non-standard residues; d marks the D form. Peptide text beside a SMILES is read from it. * marks the point of attachment. dPhe(4-NHCONH2) = NC(=O)Nc1ccc(C[C@@H](N)C(=O)O)cc1; Dihydroorotyl(S) = O=C1C[C@@H](C(=O)*)NC(=O)N1; dPhe(4-Cl) = N[C@H](Cc1ccc(Cl)cc1)C(=O)O; Phe(4-NH2) = Nc1ccc(C[C@H](N)C(=O)O)cc1; d2Nal = N[C@H](Cc1ccc2ccccc2c1)C(=O)O; Lys(iPr) = CC(C)NCCCC[C@H](N)C(=O)O; d3Pal = N[C@H](Cc1cccnc1)C(=O)O
# Experiments:
# [1] = test system: Myc-CAP (STING^lo) tumors; assay: Myc-CAP syngeneic tumor growth; format: in vivo, mouse; conditions: immunocompetent syngeneic mice
# Experimental: FIGS. 25A and 25B. […] (25A-25B) Myc-CAP (STING^lo) tumor-bearing syngeneic mice were treated with the indicated drug(s) until untreated tumors reached approx. 2500 mm^3. Tumor volume curves for duration of treatment are shown.
# FIGS. 26A-26D. […] Immunodeficient athymic nude (26A) and NOD-SCID (26B) mice were engrafted with Myc-CAP (STING^lo) tumors and treated with the indicated drug(s) until untreated tumors reached approx. 2000 mm^3. Tumor volume curves for duration of treatment are shown. For 26A-26B, n=3-4 mice per group. (26C-26D) Single-cell suspensions were generated from harvested tumors and analyzed by flow cytometry for the indicated immune cell populations and their activation states. Data are represented relative to CD45+ immune cells. For 26C-26D, n=3-5 animals per treatment group from 2 independent experiments. Significance/p-values were calculated by […].
# FIGS. 29A-29M. […] Myc-CAP cancer cells were treated with the indicated drugs singly or in combination for 36 hours. (29A) Cells were stained with anti-mouse specific p-γH2AX antibody and a fluorescently labeled secondary antibody for determination of DNA DSBs, which were quantified by confocal microscopy. (29B) Protein extracts from cells in 29A were analyzed for the indicated pharmacodynamic biomarkers by western blotting; (29C) Annexin V-PI staining was done to assess frequency of live cells (Annexin V^− PI^−) following drug treatment. (29D) Ultracentrifugation was utilized to purify microvesicles (MVs) from supernatants in treatment groups in (29A) and associated DNA DSBs was quantified by Nanodrop®. Independent experiments n=2. (29E) Ultracentrifugation was utilized to purify MVs from supernatants in indicated treatment groups in FIG. 17A, and associated DNA DSBs were quantified by Nanodrop®; n=2 independent experiments. (29F) Syngeneic mice were engrafted with Myc-CAP (STING^lo) cells, and tumors were harvested when the tumor volume reached 400 mm^3. Single cell suspensions of the tumors were treated with the indicated drug(s), in the presence or absence of GW4869 (MV biogenesis inhibitor). (29G) Bone marrow derived macrophage (BMDMs) were co-cultured for 30 hours with supernatants (−/+ exogenous 50 units of DNase I pre-treatment for 30 minutes) from Myc-CAP cells that were treated with the indicated drug(s) for 36 hours. (29H) cGAMP (10 μg/mL) was pre-incubated with 10 units of DNAse I or mock control for 30 minutes and then added to BMDMs for 30 hours. (29I-29L) STING^+/+/STING^−/− BMDMs were co-cultured for 36 hours with supernatants from Myc-CAP and B6-Myc cancer cells that were treated with the indicated drug(s) for 36 hours. Supernatants were collected from 29F-29L at the end of treatment and analyzed for IFNβ1 by ELISA. (29M) Myc-CAP (STING^lo) tumor-bearing mice were treated with the indicated drug(s) until tumors first reached approx. 2500 mm^3. For the degerelix/rucaparib/buparlisib combination, additional cohorts of mice underwent concomitant treatment with STING antagonist H-151 or GW4869. Tumor volume was recorded daily for duration of experiment. For in vitro experiments, n=2 independent experiments and for in vivo experiments n=3-4 animals /group.
# [2] = test system: Myc-CAP (STING^lo) tumors; assay: Immune profiling of Myc-CAP tumors (flow cytometry, qRT-PCR); format: in vivo, mouse; conditions: degarelix for 10 days
# Experimental: FIGS. 24A-24G. […] Myc-CAP (STING^lo) tumor-bearing syngeneic mice were treated with degarelix (chemical castration) for 10 days. At the end of treatment, tumors were harvested and analyzed by flow cytometry for infiltration of CD45+ immune cells (24A), macrophages (24B) and CD4/CD8 T cells (24C-24D). Mean fluorescence intensity (MFI) is depicted for PD-Ll expression on CD45−/CD45+ cells (24E-24F) and TAMs (24G) within the TME; n=3-5 animals/group; Significance/p-values were calculated by Un-paired t-test.
# FIGS. 26A-26D. […] (26C-26D) Single-cell suspensions were generated from harvested tumors and analyzed by flow cytometry for the indicated immune cell populations and their activation states. […] Significance/p-values were calculated by […].
# FIGS. 27A-27D. […] Single-cell suspensions were generated from harvested tumors and analyzed by flow cytometry for CD4 infiltration (27A) and activation (27C). (27B, 27D) Single-cell suspensions were generated from harvested tumors and analyzed by flow cytometry for the indicated immune cell populations and their activation states. […] Significance/p-values were calculated by one-way ANOVA.
# FIGS. 28A and 28B. […] (28B) Single-cell suspensions were generated from harvested tumors and analyzed by flow cytometry for macrophage (F4/80+) Arginase I expression. n=3 animals/group; Significance/p-values were calculated by one-way ANOVA. […]
smiles,measurement,setting,value
CC(=O)N[C@H](Cc1ccc2ccccc2c1)C(=O)N[C@H](Cc1ccc(Cl)cc1)C(=O)N[C@H](Cc1cccnc1)C(=O)N[C@@H](CO)C(=O)N[C@@H](Cc1ccc(NC(=O)[C@@H]2CC(=O)NC(=O)N2)cc1)C(=O)N[C@H](Cc1ccc(NC(N)=O)cc1)C(=O)N[C@@H](CC(C)C)C(=O)N[C@@H](CCCCNC(C)C)C(=O)N1CCC[C@H]1C(=O)N[C@H](C)C(N)=O [degarelix] (Ac-[d2Nal][dPhe(4-Cl)][d3Pal]S[Phe(4-NH2)](Dihydroorotyl(S))[dPhe(4-NHCONH2)]L[Lys(iPr)]P[dA]-NH2),tumor growth response,[1],not observed
same,immune infiltration and PD-L1 expression within the TME after chemical castration,[2],increases macrophage and CD4+ T cell infiltration and PD-L1 expression
